Source: patent publication US8809368B2, “Compounds affecting gap junction activity” (Kansas State University Research Foundation, priority 2006, dated 2014)
In brackets after ≈: the same amount, converted by molar mass.

What was measured:
Trypanosoma brucei = experiment: Anti-trypanosomal activity, inhibition of T. brucei growth (ATP-bioluminescence luciferase assay); assay type: cell-based; conditions: read-out: IC50 against Trypanosoma brucei
Protocol: The antiparasitic activities of exemplary compounds described here was studied using the anti-trypanosomal activity protocol described in: Rapp M, et al. J Med Chem 2006; 49:2096-102. […] FIG. 1 summarizes the compound inhibition of T. brucei growth. It is seen that compounds of the invention are useful in inhibiting T. brucei growth.
Culturing of Parasites. The bloodstream form of Trypanosoma brucei 427 strain was maintained under the standard cell culture conditions (37° C., 5% CO2). The parasites were grown in complete HMI-9 medium containing 10% FBS, 10% Serum Plus and 1× Penicillin/Streptomycin. (Angew. Chem. Int. Ed. Engl. 2003, 42, 5274-5293).
Luciferase Assay. Luciferase assay was used to measure ATP-bioluminescence in T. brucei cultured in 96-well plates at 37° C. for 48 hours. Parasites were diluted to 1.0×10^5 cells/mL in complete HMI-9 medium. One hundred microliters (100 μL) of the diluted parasites were aliquoted into sterile 96-well flat white opaque culture plates (Greiner). Each compound was serially diluted from 10 μM to 0.1 μM in DMSO and then mixed in the appropriate wells containing parasites. The treated parasites were then incubated for 48 hours at 37° C. with 5% CO2 before monitoring viability. To measure the viability of the parasites after treatment with each compound, the parasites were lysed in the wells by adding 100 μL of CellTiter-Glo™ (Promega). After lysis, the ATP bioluminescence of the 96-well plates was measured with a SpectraFluor Plus multidetection plate reader (Tecan).

[1] = system: MDA-MB-453 human breast cancer cells; experiment: Soft agar colony growth, MDA-MB-453 cells; assay type: cell-based; conditions: Table 2
Protocol: (§1) FIG. 3(A) MDA-MB-453 and (B) T47D human breast cancer cells were treated with 10 μM of various quinolines for 7 days. Base agar plates were prepared containing 0.8% agar and 0.4% agar in Ham's F12. Cells (5×10^4 cells/33 mm well) were suspended in 100 μl of Ham's F12 with 0.4% agar and plated. These plates were maintained at 37° C. for 7 days and examined for the presence of colonies. Individual colonies of 40 μm or greater were examined. […] However, PQ3 caused a 2.3-fold increase in colony growth in MDA-MB-453 cells and PQ2 caused a 2.6-fold increase in T47D colony growth compared to DMSO. FIGS. 7 and 8 show MDA-MB-453 and T47D colony growth for various concentrations of PQ1 and SA tested for 7 days. The procedures are generally as described above. The cell colony growth decreased using 10 and 100 nM PQ1 for both cell types. Colony Growth Assay: T47D human breast cancer cells were treated with PQ1. Base agar plates were prepared containing 0.8% agar and 0.4% agar in Ham's F12. Cells (5×10^4 cells/33 mm2 well) were suspended in 100 μl of Ham's F12 with 0.4% agar and plated. These plates were maintained at 37° C. for 7 days and examined for the presence of colonies. Individual colonies of 40 um or greater were examined.

[2] = system: T47D human breast cancer cells; experiment: Soft agar colony growth, T47D cells; assay type: cell-based; conditions: for effect on breast cancer cell colony growth: Table 2
Protocol: Base agar plates were prepared containing 0.8% agar and 0.4% agar in Ham's F12. Cells (5×10^4 cells/33 mm^2 well) were suspended in 100 μl of Ham's F12 with 0.4% agar and plated. These plates were maintained at 37° C. for 7 days and examined for the presence of colonies. Individual colonies of 50 μm or greater were examined. T47D cells were treated with 1, 10 and 100 nM PQ1 and SA (succinic acid) as a solvent control. Individual colonies of 50 μm or greater were examined. Statistical significance, *p<0.05, of at least three experiments
as §1, with “types.” for “types. Colony Growth Assay: T47D human breast cancer cells were treated with PQ1. Base agar plates were prepared containing 0.8% agar and 0.4% agar in Ham's F12. Cells (5×10^4 cells/33 mm2 well) were suspended in 100 μl of Ham's F12 with 0.4% agar and plated. These plates were maintained at 37° C. for 7 days and examined for the presence of colonies. Individual colonies of 40 um or greater were examined.”
(§2) Colony Growth Assay: T47D human breast cancer cells were treated with PQ1. Base agar plates were prepared containing 0.8% agar and 0.4% agar in Ham's F12. Cells (5×10^4 cells/33 mm2 well) were suspended in 100 μl of Ham's F12 with 0.4% agar and plated. These plates were maintained at 37° C. for 7 days and examined for the presence of colonies. Individual colonies of 40 um or greater were examined.
Various oncogenes (e.g. ras, raf, neu, src, mos) down-regulate GJIC while several tumor suppressor genes can up-regulate GJIC. […] Cells were grown in soft agar to assess their capacity for anchorage-independent growth, which is a key feature of cell transformation due to the importance of cell-cell and cell-matrix based tumor suppression. MEC and T47D cells were treated with 10, 100, 1000, and 10000 nM PQ1 for 7 days. A graphical presentation of three experiment results is presented in log scale of PQ1 concentration. […] A 100 nM PQ1 inhibits 66% of colony growth compared to controls, without PQ1 treatment or 100 nM succinic acid.
as §2, with “Using Soft Agar. Cells” for “Assay: T47D human breast cancer cells”, “0, 10, 100, 200 and 500 nM PQ1 for 7 days.” for “PQ1.”, “mm^2” for “mm2”, “50 μm” for “40 um”

MDA-MB-453 cells = experiment: Gap junction activity (GJIC), flow cytometry of dye coupling, MDA-MB-453 cells; assay type: cell-based, human; conditions: MDA-MB-453; for effect on gap junction intercellular communication: Table 1, concentration not given
Protocol: FIG. 4(A) MDA-MB-453 and (B) T47D cells were treated with low (500 nM) and high (10 μM) concentrations of PQs for 24 hours. Monolayers of acceptor cell population were grown on 25-cm flasks in the presence of Vibrant DiD. Vybrant DiD in acceptor cells is not able to pass through the gap junctions because of its hydrophobic property. Single cell suspensions of donor treated cells were prepared, labeled with 0.05 μg/ml calcein-AM, incubated at 37 C for 5 minutes. Quantification of dye coupling between the donor and acceptor cells was assessed by dual-excitation flow cytometry. […] Cells treated with 10 μM PQ3 have approximately 40-50% decrease in gap junction activity compared control or DMSO.

MDA-MB-231 = experiment: Gap junction intercellular communication, MDA-MB-231 cells; assay type: cell-based, human; conditions: Table 1
MCF-7 = experiment: Gap junction intercellular communication, MCF-7 cells; assay type: cell-based, human; conditions: Table 1
ZR75 = experiment: Gap junction intercellular communication, ZR75 cells; assay type: cell-based, human; conditions: Table 1
HT29 = experiment: Gap junction intercellular communication, HT29 colon cancer cells; assay type: cell-based; conditions: Table 3
SW620 colon cancer cells = experiment: Gap junction activity, SW620 colon cancer cells; assay type: cell-based
Protocol: However, PQ3 has an opposite effect on mammary cancer cell lines. […] A summary of PQ-mediated GJIC activity and colony growth in breast and colon cancer cells is presented in Tables 1, 2, and 3, as well as FIGS. 10-13. In FIG. 10, SW620 cells were dosed for 24 hours with PQ1 at 100, 200, 300, and 500 nM. The gap junction activity was measured as a percent of control, as previously described. It was seen that all concentrations on PQ1 increased the gap junction activity in SW620 colon cancer cells as compared to the control. In FIG. 11, the effect of PQ1 on the expression of PKCγ was studied at concentrations of 100, 200, 300 and 500 nM PQ1 for 24 hours. It is seen in FIG. 11 that PQ1 has no effect on the expression of PKCγ at the levels tested. In FIGS. 12 and 13, the effect of PQ1 on the colony growth of SW620 colon cancer cells was measured with 1-100 nM PQ1 (FIG. 12) and 10 uM PQ1 (FIG. 13).

R28 cells = experiment: Dye transfer/scrape loading gap junction assay in R28 cells; assay type: cell-based, rat; conditions: 10 μM for 40 minutes, compared to untreated control cells
Protocol: To determine the effects of the compounds of the invention on gap junctions, […] R28 cells and lucifer yellow dye and rhodamine dextran were used to study gap junction. (Das, S.; Lauer, J.; Barnett, M.; Lin, D.; Akoev, V.; Battina, S.; Hua, D. H.; Takemoto, D. J. PKCγ phosphorylates connexin50 on serine-430. A presentation at 2006 ARVO Annual Meeting, Apr. 30-May 4, 2006, Fort Lauderdale, Fla.). […] The cells were treated with different compounds as shown @ 10 μM for 40 minutes. A mixture of lucifer yellow (LY) and rhodamine dextran (RD) was added to the cells at the center of the coverslip. Two cuts across the coverslip were made to form a transient tear in the plasma membranes of the cells to permit dye transfer through gap junctions. Cells were incubated with the dye for 20 minutes, then fixed and examined by fluorescent microscopy. For quantitative analysis the extent of dye transfer was estimated by counting the number of LY and RD labeled cells in the microscopic field and graphed. […] PQ3 is useful as a drug having reduced gap junction inhibitory activity. The gap junction activity of other compounds of the invention may be tested as described herein without the use of undue experimentation.
Gap junction activity assay. R28 cells were grown to 90% confluency on coverslips. They were treated with PQ1 at 10 μM for 40 min. A mixture of 1% each, in PBS, Lucifer yellow (LY) and Rhodamine Dextran (RD) (Molecular Probes, Eugene, Oreg.) were added to the cells at the center of the coverslip. Two cuts across the coverslip were made to form a transient tear in the plasma membranes of the cells to permit dye entry into cells. Cells were incubated with 2.5 μl of both of the dyes for 20 min, then fixed in 2.5% paraformaldehyde, washed in PBS and examined by fluorescent microscopy using a Nikon C1 confocal microscopy. For quantitation, the extent of dye transfer was calculated by counting the number of LY-labeled cells from the initial scrape with subtraction of RD-labeled cells, as a cell damage control, in the microscopic field. Four points per slide were photographed. The experiments were repeated six times, and data are means±SEM.

SMILES	IC50 (Trypanosoma brucei) [µg/mL]	effect on breast cancer cell colony growth [1]	increase in colony growth ([2]; 10 μM, 7 days, compared to DMSO) [fold]	effect on breast cancer cell colony growth [2]	effect on gap junction activity (MDA-MB-453 cells; 24 hours)	effect on gap junction intercellular communication (MDA-MB-453 cells)	effect on gap junction intercellular communication (MDA-MB-231)	effect on gap junction intercellular communication (MCF-7)	effect on gap junction intercellular communication (ZR75)	effect on gap junction intercellular communication (HT29)	effect on gap junction intercellular communication (SW620 colon cancer cells; Table 3, 6 uM)	effect on colony growth ([2]; 10 μM, 7 days)	effect on gap junction intercellular communication (SW620 colon cancer cells; Table 3, concentration not given)	block of lucifer yellow dye transfer through gap junctions (R28 cells)	block of lucifer yellow dye transfer through gap junctions (R28 cells; listed as MQ)
COc1cc([N+](=O)[O-])c2nccc(C)c2c1Oc1cccc(C(F)(F)F)c1 [PQ2, 6-Methoxy-4-methyl-8-nitro-5-(3-trifluoromethylphenyloxy)quinoline]	2.5 (≈ 6.6 µM)	No effect	2.6	Increase	no significant effect	No effect	Decrease	Decrease	No effect	Increase	Increase	–	–	–	–
COc1cc([N+](=O)[O-])c(N)cc1Oc1cccc(C(F)(F)F)c1 [PQ4, 4-Amino-5-nitro-2-(3-trifluoromethylphenyloxy)anisole]	25 (≈ 76.2 µM)	No effect	–	Decrease	–	No effect	Decrease	No effect	No effect	Increase	–	inhibitory effect	No effect	–	–
OC(c1cc(C(F)(F)F)nc2c(C(F)(F)F)cccc12)C1CCCCN1 (centres unmarked) [mefloquine, reference compound]	–	–	–	–	–	–	–	–	–	–	–	–	–	blocked dye transfer significantly	hardly any passage of the dye
